# Test results from patent US20230346969A1, “INTERMEDIATE FOR PREPARING ANTIBODY-DRUG CONJUGATE (ADC), PREPARATION METHOD THEREFOR, AND USE THEREOF” (priority 2020, published 2023).
# How the values were obtained:
# SKBR3 cells = test: Endocytosis and intracellular localization of ADC by confocal microscopy; format: cell-based; conditions: 5 µg/mL, 37° C., 45 or 90 min
# Protocol: SKBR3 cells were incubated with 5 µg/mL of hRS7-VK-PTX or hRS7-VK-SN38 in a 24-well plate (1 × 10^4 cells/well) in a 5% CO2, 37° C. incubator for 45 or 90 min. Cells were washed once with PBS, fixed and permeabilized. After washing, cells were stained with 488 goat anti-human IgG (H&L) or 555 anti-rabbit IgG F(ab′)2 fragment. Nuclear DNA was stained with 4′,6-dimidyl-2-phenylindole (DAPI). Immunofluorescence was recorded with an Olympus BK71 confocal microscope.
# SKBR3 cells were incubated with ADC molecules at 37° C. for 45 or 90 min. Unbound ADC was removed by washing cells in a culture medium, then the cells were fixed and permeabilized. The marker proteins LAMP-1, GM130 and clathrin were detected with their respective antibodies and a secondary antibody conjugated to Alex®555 (red). Anti-Trop-2 ADC was detected with DyLight®488-conjugated secondary antibody (green). DAPI was used to stain nuclear DNA (blue).
# [1] = test system: mixture of Trop-2-positive tumor cells BXPC-3 and Trop-2-negative tumor cells NCIH1688; test: Bystander effect: transplanted tumor from mixture of BXPC-3 and NCIH1688 cells; format: in vivo, BALB/c-nu/nu mice; conditions: 10 mg/kg, transplanted tumors heterogeneously expressing Trop-2
# Text: (§1) Five-week-old female athymic BALB/c nu/nu mice were purchased from Charles River Company (Shanghai, China), and mice were randomly divided into 5-6 mice/group. Animal handling and procedures were approved and performed in accordance with the requirements of the Institutional Animal Care and Use Committee (IACUC) of Shanghai Institute of Materia Medica, Chinese Academy of Sciences. All models were inoculated subcutaneously on the side of mice. BXPC-3, HCC1806 and NCIH1688 cells were established by injecting and homogenizing 5 × 10^6 cells in Matrigel matrix. COLO205 cells were established by injecting and suspending 1 × 10^7 cells in Matrigel matrix. After the tumor volume reached about 200 mm^3, the tumor-bearing mice were randomly divided into treatment groups and a control group according to the tumor volume. Each drug was administered intraperitoneally. […] The percentage of inhibition was calculated by the following formula: (1-average tumor volume of the treatment group/average tumor volume of the control group)×100%. Toxicity of the different treatment groups was assessed by monitoring weight loss.
# (§2) A mixture of Trop-2-positive tumor cells BXPC-3 and Trop-2-negative tumor cells NCIH1688 or NCIH1688 cells alone were inoculated into BALB/c-nu/nu mice (FIG. 1e, right panel), and the “bystander effect” of hRS7-VK-PTX was detected in a mouse transplanted tumor model.
# [2] = Dose tolerability, single intravenous dose acute toxicity; format: in vivo; conditions: BALB/c mice
# Protocol: Dose tolerability assay was performed in BALB/c mice (3 mice per dose). The drug was given in a single intravenous dose. The injection doses of hRS7-VK-PTX were 60, 80 and 100 mg/kg, and the injection doses of hRS7-VK-MMAE were 60 and 80 mg/kg, respectively. Toxicity was assessed by observing mouse behavior, weight loss and survival. The weight change rate (%) was calculated as: (body weight - body weight before treatment)/(body weight before treatment) × 100%.
# The safety of relatively high doses of hRS7-VK-PTX in BALB/c mice was studied by an acute toxicity experiment with single intravenous administration in mice.
# NCIH1688 cells = test: Transplanted tumor from NCIH1688 cells alone (not expressing Trop-2); format: in vivo, BALB/c-nu/nu mice; conditions: hRS7-VK-PTX 10 mg/kg, hRS7-VK-MMAE 3 mg/kg
# Text: as §1, §2
# MDA-MB-468 = test: Cell viability assay (CCK-8); format: cell-based; conditions: ADCs; CCK-8, 96 hours; SRM-M9-409, Mammary; read-out: IC50 (95% Cl)
# Protocol: Cell viability was determined using Cell Counting Kit 8 (CCK-8). Cells were seeded into 96-well plates at 3000-10000 cells/well. After incubation overnight, drugs were added at different concentrations. Plates were incubated in a 5% CO2, 37° C. humidified chamber for 96 hours. CCK8 reagent was added thereto and the plates were placed back to the incubator until the absorbance at 450 nm of untreated control cells was greater than 1.0. Growth inhibition was measured as the percent growth relative to untreated cells. Dose response curve was generated from the mean values of two or three tests, and IC50 values were calculated using Prism GraphPad software.
# The anti-tumor efficacy of different payloads on different tumor cell lines was detected by CCK-8, and the results are shown in FIG. 5.
# [3] = Adverse effects and weight loss of mice treated in the efficacy models; format: in vivo, BALB/c nu/nu mice; conditions: mouse, in vivo
# Text: Five-week-old female athymic BALB/c nu/nu mice were purchased from Charles River Company (Shanghai, China), and mice were randomly divided into 5-6 mice/group. Animal handling and procedures were approved and performed in accordance with the requirements of the Institutional Animal Care and Use Committee (IACUC) of Shanghai Institute of Materia Medica, Chinese Academy of Sciences. All models were inoculated subcutaneously on the side of mice. BXPC-3, HCC1806 and NCIH1688 cells were established by injecting and homogenizing 5 × 10^6 cells in Matrigel matrix. COLO205 cells were established by injecting and suspending 1 × 10^7 cells in Matrigel matrix. After the tumor volume reached about 200 mm^3, the tumor-bearing mice were randomly divided into treatment groups and a control group according to the tumor volume. Each drug was administered intraperitoneally. Mice were injected at doses of 3 or 10 mg/kg (10 mL/kg). Tumor volume was defined as length × ½ × width × width. The percentage of inhibition was calculated by the following formula: (1-average tumor volume of the treatment group/average tumor volume of the control group)×100%. Toxicity of the different treatment groups was assessed by monitoring weight loss.
# BXPC-3 cells = test: BXPC-3 mouse transplanted tumor model; format: in vivo, BALB/c nu/nu mice
# Text: as §1, with “matrix.” for “matrix. After the tumor volume reached about 200 mm^3, the tumor-bearing mice were randomly divided into treatment groups and a control group according to the tumor volume. Each drug was administered intraperitoneally.”
# Mice inoculated with BXPC-3 cells (n = 5 per group) were treated with ADC or naked antibody on days 5, 13, and 21, and tumors were measured two or three times a week. On day 25, statistical significance between treatment and control groups was assessed using a two-tailed t-test. ***P<0.001, compared with hRS7 treatment group; *P<0.05, comparing hRS7-VK-PTX treatment group with PTX treatment group; compared with hRS7 treatment group, P<0.001, data=mean ± SD, the results are shown in FIG. 7a.
substance,measurement,setting,value
hRS7-VK-PTX,internalization and intracellular localization,SKBR3 cells,co-localization of hRS7-VK-PTX molecule with lysosomes and clathrin heavy chain
same,tumor growth inhibition index (TGI),[1],99.5%
same,toxicity or weight loss compared with placebo,[2]; single 100 mg/kg intravenous dose,no significant toxicity or weight loss
same,maximum tolerated dose (MTD),"[2]; single intravenous dose, highest dose 100 mg/kg",not reached
same,killing effect on transplanted tumors not expressing Trop-2,NCIH1688 cells,had no such effect
same,IC50,MDA-MB-468,2.68 nM
same,adverse effects or weight loss in treated mice,[3],did not cause adverse effects or weight loss
same,inhibition of transplanted tumor,"BXPC-3 cells; BXPC-3 xenograft, intraperitoneal, days 5, 13, 21",more effective than hRS7-VK-SN38
same,inhibition of transplanted tumor compared with PTX,"BXPC-3 cells; BxPC-3 model, 3 mg/kg of hRS7-VK-PTX, P = 0.0248",more effective than 10 mg/kg of PTX
